Assay type in all cases: biochemical
The target of experiment [1] is T1, VPS34 (Homo sapiens, UniProt Q8NEB9).
T1 construct: GST (N); host or cells: SF9 insect cells (baculovirus)
Briefly: Human VPS34 enzyme assay (Adapta Universal Kinase Assay). To be noted: for VPS34 % ihn: at 1.11 μM; for inhibition at 1.11 µM: 1 h, read-out: VPS34 % ihn. The procedure: VPS34 (accession number GB:BC033004) is cloned into pDEST20-Thombin as N-terminal GST tagged fusion proteins using the Gateway system (Invitrogen, catalog#11804-013). The sequences are verified before recombinant protein expression using the Baculovirus Expression System with Gateway® Technology.
For expression VPS34 was infected at 1MOI in SF9 cells and harvested 72 hours post infection.
For purification, VPS34 is purified by Glutathione Sepharose 4 Fast Flow (GE Healthcare #17-5132-03) followed by HiTrap Q (GE Healthcare #17-1153-01).
3) VPS34 is assayed using Adapta™ Universal Kinase Assay Kit (Invitrogen).
4) Human VPS34 enzyme assay method
100 mL compounds in DMSO are added to wells of a 384 well microtitre plate (Greiner 780076). At room temperature: 5 ul VPS34 reaction buffer (Invitrogen Assay Buffer Q (diluted 1 in 5 with nanopure water) plus 2 mM DTT and 2 mM MnCl2) containing ATP (20 uM, Promega) and 200 uM PI-PS substrate (Invitrogen PV5122) is added followed immediately by 5 ul VPS34 reaction buffer (as above) containing VPS34 (5 nM, Millennium Protein Sciences Group) and the mixture is incubated with shaking at room temperature for 1 hour. Then 5 ul VPS34 stop-detect mix (as per Invitrogen Adapta Assay kit (PV5009) instructions (contains kinase quench buffer, TR-FRET buffer, Adapta Eu anti-ADP antibody and Alexa Fluor 647 ADP tracer)) is added to quench the reaction. The plates are then incubated for 30 minutes at room temperature with shaking and then read on a BMG PheraStar Plus reader.

In experiment [2] the target is T2, PI3Kgamma (Homo sapiens, UniProt P48736).
T2 construct: His (N); host or cells: SF9 insect cells (baculovirus)
Nature of the experiment: Human PI3K gamma enzyme assay (HTRF, as for PI3K alpha). To be noted: for PI3Kgamma % inh: at 1.11 μM; for inhibition at 1.11 µM: read-out: PI3Kgamma % inh. A digest of the protocol:
(§1)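 N-His p110β/δ co-expressed with untagged p85 in Sf9, p110γ alone. Enzyme 5.25 nM (β), 0.75 nM (δ), 5 nM (γ), with ATP 25 uM and di-C8 PI(4,5)P2 3.5 uM (added-solution levels), pH 7.00, 30 min RT. HTRF read-out: biotin-PIP3, GST-GRP-1 PH domain, Eu anti-GST, streptavidin-XL.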

Experiment [3] has as its target T3, PI3Kbeta (Homo sapiens, UniProt P42338).
T3 construct: His (N); host or cells: SF9 insect cells (baculovirus)
Nature of the experiment: Human PI3K beta enzyme assay (HTRF, as for PI3K alpha). To be noted: for PI3Kbeta % inh / inhibition at 1.11 µM: at 1.11 μM; for IC50: read-out: IC50 (inhibit PI3Kbeta); for inhibition at 1.11 µM: read-out: PI3Kbeta % inh. An outline of the steps: as §1
On the technique in general: Time-resolved FRET reads energy transfer from a long-lived donor to a nearby acceptor.

Experiment [4] deals with T4, PI3Kalpha (Homo sapiens, UniProt P42336).
T4 construct: His (N); host or cells: SF9 insect cells (baculovirus)
Briefly: Human PI3Kα enzyme assay (HTRF). Particulars: for PI3Kalpha % inh: at 1.11 μM; for inhibition at 1.11 µM: read-out: PI3Kalpha % inh. A digest of the protocol:
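His-tagged p110α co-expressed with p85 in Sf9 cells was reacted for 30 min at room temperature in pH 7.00 Hepes buffer with 10 mM MgCl2. Addition solutions held 25 uM ATP, 3.5 uM di-C8 PI(4,5)P2 and 0.4875 nM enzyme. The reaction was quenched with EDTA/biotin-PIP3 and detected by HTRF (GST-GRP-1 PH domain, streptavidin-XL, Eu anti-GST) after 1 h.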

Experiment [5] has as its target T5, PI3Kdelta (Homo sapiens, UniProt O00329).
T5 construct: His (N); host or cells: SF9 insect cells (baculovirus)
Briefly: Human PI3K delta enzyme assay (HTRF, as for PI3K alpha). Particulars: for PI3Kdelta % inh: at 1.11 μM; for inhibition at 1.11 µM: read-out: PI3Kdelta % inh. An outline of the steps:
as §1

The structures appear in SMILES notation.

T1 sequence (Q8NEB9 whole entry): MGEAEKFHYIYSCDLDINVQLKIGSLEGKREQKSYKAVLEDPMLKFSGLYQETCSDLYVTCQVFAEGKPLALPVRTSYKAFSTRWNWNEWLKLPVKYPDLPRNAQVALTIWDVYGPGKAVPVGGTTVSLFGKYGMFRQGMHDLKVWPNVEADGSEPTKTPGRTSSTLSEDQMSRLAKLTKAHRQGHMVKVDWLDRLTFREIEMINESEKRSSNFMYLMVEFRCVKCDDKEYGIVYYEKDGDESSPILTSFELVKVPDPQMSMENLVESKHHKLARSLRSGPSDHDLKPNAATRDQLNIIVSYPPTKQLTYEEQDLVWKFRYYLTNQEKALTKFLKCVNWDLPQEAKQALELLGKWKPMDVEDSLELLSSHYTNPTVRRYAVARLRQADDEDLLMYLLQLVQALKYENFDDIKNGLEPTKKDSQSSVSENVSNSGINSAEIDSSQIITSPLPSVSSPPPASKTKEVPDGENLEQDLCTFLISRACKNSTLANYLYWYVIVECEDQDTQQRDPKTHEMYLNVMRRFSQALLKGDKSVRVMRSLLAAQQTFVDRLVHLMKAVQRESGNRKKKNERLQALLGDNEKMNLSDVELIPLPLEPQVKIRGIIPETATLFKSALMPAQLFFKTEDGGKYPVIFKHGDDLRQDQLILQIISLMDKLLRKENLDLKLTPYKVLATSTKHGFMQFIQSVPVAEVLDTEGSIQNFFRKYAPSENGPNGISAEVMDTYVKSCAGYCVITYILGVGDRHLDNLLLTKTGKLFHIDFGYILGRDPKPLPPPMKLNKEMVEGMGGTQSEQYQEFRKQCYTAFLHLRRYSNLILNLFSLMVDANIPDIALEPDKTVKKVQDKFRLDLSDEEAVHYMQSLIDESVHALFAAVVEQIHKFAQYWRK
T2 sequence (P48736 whole entry): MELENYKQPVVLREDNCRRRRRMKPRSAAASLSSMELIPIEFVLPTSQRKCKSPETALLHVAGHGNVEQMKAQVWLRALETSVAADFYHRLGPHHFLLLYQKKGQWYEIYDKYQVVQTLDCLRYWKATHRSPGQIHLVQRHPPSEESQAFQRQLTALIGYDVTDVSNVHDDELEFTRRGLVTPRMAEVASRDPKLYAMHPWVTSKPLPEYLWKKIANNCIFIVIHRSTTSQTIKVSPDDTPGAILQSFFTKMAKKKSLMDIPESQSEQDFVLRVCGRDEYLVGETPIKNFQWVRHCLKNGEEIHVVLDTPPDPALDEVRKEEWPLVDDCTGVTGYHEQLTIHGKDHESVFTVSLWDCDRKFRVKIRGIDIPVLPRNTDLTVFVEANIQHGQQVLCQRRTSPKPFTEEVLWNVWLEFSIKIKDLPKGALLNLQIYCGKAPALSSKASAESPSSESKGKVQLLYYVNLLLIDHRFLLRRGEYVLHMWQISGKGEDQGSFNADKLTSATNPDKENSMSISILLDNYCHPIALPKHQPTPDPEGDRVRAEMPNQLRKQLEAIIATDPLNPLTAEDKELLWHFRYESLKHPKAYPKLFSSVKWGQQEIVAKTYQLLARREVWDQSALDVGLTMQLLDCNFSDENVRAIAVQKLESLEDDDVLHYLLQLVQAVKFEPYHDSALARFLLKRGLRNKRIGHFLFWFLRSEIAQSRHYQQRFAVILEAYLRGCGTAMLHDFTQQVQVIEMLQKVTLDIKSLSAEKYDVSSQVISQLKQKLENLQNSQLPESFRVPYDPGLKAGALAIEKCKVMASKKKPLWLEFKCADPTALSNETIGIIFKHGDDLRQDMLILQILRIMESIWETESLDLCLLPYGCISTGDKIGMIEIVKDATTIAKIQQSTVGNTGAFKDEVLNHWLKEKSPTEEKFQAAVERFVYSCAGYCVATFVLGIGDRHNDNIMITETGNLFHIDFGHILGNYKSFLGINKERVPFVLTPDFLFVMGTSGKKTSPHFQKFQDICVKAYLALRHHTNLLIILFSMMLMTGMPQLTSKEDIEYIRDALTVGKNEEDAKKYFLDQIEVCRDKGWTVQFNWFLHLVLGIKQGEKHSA
T5 sequence (O00329 whole entry): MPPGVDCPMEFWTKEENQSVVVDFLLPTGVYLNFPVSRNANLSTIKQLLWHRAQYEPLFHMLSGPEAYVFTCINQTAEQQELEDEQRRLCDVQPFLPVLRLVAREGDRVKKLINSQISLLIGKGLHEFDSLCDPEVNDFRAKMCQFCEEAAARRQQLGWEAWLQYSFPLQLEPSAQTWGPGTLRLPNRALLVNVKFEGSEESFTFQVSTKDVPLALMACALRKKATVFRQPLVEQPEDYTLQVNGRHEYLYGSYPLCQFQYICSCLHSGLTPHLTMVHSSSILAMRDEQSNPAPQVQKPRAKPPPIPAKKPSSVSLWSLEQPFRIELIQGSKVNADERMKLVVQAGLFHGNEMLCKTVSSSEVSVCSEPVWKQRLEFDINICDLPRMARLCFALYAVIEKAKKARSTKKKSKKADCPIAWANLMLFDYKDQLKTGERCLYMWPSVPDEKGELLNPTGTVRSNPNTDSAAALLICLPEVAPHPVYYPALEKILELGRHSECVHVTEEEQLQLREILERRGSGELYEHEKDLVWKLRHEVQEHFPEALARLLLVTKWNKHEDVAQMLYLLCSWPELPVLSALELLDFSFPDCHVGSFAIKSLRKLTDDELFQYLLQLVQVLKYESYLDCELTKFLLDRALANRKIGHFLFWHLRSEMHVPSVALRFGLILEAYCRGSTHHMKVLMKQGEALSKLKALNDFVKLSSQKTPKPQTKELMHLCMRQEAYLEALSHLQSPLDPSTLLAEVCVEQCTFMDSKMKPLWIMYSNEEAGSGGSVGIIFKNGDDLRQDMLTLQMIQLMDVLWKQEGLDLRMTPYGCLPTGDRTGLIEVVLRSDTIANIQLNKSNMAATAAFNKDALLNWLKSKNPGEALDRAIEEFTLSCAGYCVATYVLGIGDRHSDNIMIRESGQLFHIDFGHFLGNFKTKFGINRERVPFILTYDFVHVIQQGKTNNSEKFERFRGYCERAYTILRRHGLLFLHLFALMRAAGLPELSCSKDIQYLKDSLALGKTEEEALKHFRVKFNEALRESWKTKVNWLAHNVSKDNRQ
T5 sequence (P27986 whole entry partner): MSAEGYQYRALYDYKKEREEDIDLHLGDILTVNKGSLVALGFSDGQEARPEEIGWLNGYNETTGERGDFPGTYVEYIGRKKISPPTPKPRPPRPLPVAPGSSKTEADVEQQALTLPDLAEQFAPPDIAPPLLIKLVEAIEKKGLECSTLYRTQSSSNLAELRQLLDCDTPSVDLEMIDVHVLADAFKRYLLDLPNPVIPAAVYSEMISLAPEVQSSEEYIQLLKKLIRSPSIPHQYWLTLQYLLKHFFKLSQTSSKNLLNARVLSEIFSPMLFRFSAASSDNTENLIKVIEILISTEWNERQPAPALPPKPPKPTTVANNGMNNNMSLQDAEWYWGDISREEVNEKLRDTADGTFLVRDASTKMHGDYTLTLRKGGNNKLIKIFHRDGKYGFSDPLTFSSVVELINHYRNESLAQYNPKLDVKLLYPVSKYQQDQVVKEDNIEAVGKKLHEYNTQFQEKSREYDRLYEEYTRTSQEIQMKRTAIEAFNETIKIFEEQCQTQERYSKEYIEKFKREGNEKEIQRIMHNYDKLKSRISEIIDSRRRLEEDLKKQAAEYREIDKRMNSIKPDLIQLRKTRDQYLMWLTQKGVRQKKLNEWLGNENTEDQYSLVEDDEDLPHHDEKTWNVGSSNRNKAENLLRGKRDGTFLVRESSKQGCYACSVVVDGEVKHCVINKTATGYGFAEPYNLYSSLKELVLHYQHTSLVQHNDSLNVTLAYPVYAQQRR
T3 sequence (P42338 whole entry): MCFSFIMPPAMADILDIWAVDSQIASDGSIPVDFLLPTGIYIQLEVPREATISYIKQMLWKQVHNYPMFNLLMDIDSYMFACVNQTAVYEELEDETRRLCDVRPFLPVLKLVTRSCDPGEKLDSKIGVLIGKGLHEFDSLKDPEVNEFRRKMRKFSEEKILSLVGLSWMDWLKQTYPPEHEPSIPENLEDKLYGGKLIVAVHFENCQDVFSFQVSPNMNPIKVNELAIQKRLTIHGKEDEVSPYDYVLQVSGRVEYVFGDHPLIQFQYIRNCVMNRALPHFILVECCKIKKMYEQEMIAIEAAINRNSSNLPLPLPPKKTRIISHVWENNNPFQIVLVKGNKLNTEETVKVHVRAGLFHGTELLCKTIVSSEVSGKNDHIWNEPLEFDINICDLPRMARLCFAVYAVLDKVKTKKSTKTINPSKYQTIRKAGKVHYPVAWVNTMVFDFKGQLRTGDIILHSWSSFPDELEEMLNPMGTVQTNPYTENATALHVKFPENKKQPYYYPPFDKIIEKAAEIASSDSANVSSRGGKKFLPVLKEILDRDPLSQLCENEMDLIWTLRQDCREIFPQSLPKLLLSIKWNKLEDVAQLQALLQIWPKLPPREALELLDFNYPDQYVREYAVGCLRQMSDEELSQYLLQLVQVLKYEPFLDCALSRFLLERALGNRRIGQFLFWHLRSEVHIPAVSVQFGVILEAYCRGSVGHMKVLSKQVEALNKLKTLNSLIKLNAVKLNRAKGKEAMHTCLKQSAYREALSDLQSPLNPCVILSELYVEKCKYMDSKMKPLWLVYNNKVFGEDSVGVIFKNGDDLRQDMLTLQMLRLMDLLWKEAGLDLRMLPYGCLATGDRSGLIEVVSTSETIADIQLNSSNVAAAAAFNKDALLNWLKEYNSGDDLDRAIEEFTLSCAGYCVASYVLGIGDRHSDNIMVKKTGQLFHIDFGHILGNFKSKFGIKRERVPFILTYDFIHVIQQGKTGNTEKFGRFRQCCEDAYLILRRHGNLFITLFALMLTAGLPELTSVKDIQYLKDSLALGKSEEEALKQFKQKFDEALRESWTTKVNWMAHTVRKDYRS
T3 sequence (P27986 whole entry partner): as the sequence (P27986 whole entry partner) above

With `O=C1NCCC(c2ccc(Cl)cc2)c2cc(-c3ccncc3)sc21` (single isomer, unassigned) [Compound 25, 4-(4-chlorophenyl)-2-pyridin-4-yl-4,5,6,7-tetrahydro-8H-thieno[2,3-c]azepin-8-one], in experiment [1], the VPS34 % ihn worked out at 10.900%. Further, in experiment [2], the PI3Kgamma % inh was 4.500%. Further, in experiment [3], the PI3Kbeta % inh is reported as 69.800% and the half-maximal inhibitory concentration (IC50) (in general, the midpoint of a concentration-inhibition curve) is 100 to 1000 nM. In experiment [4], this compound yielded a PI3Kalpha % inh of 3.700%. The PI3Kdelta % inh in experiment [5] amounted to 31.200%.
Take `CN1CC(c2ccc(Cl)cc2)c2cc(N3CCOCC3)sc2C1=O` (stereo not drawn) [Compound 198, 4-(4-chlorophenyl)-6-methyl-2-morpholino-5,6-dihydrothieno[2,3-c]pyridin-7(4H)-one]: the inhibition at 1.11 µM in experiment [1] came to 8.01%; in experiment [2], 14.9%; in experiment [3] it was 86.6%; in experiment [4] it was 8.93%; in experiment [5], 62.9%.
`Clc1ccc(C2CCc3cn[nH]c3-c3sc(-c4ccncc4)cc32)cc1` (stereo not drawn) [Compound 6, 6-(4-chlorophenyl)-8-pyridin-4-yl-1,4,5,6-tetrahydrothieno[3′,2′:6,7]cyclohepta[1,2-c]pyrazole]: the inhibition at 1.11 µM in experiment [1] worked out at 10.1%; in experiment [2] it was 14%; in experiment [3], 97.9%; in experiment [4], 27%; in experiment [5], 70.7%. Besides, the IC50 in experiment [3] was less than 100 nM.
`Cc1nn2ccccc2c1-c1nc2c(s1)NC(=O)CCC2c1ccc(Cl)cc1` (stereo not drawn) [Compound 11, 8-(4-chlorophenyl)-2-(2-methylpyrazolo[1,5-a]pyridin-3-yl)-4,6,7,8-tetrahydro-5H-[1,3]thiazolo[5,4-b]azepin-5-one]: the inhibition at 1.11 µM is -4.2% in experiment [1]; 5.2% in experiment [2]; 71.6% in experiment [3]; 36% in experiment [4]; 60.3% in experiment [5]. Further, the IC50 in experiment [3] was in the range of 100 to 1000 nM.
In the case of `CC1(C)CC(=O)c2sc(-c3ccncc3)cc2C1c1ccc(Cl)cc1` (stereo not drawn) [Compound 10, 4-(4-chlorophenyl)-5,5-dimethyl-2-pyridin-4-yl-5,6-dihydro-1-benzothiophen-7(4H)-one], the inhibition at 1.11 µM in experiment [1] was 0.1%; in experiment [2] it was 6.7%; in experiment [3], 71%; in experiment [4], 0.2%; in experiment [5] it was 32.4%. For the same compound, the IC50 in experiment [3] is 100 to 1000 nM.
`N#Cc1c(N2CCOCC2)sc2c1C(c1ccc(Cl)cc1)NC2=O` (stereo not drawn) [Compound 134, 4-(4-chlorophenyl)-2-(morpholin-4-yl)-6-oxo-5,6-dihydro-4H-thieno[2,3-c]pyrrole-3-carbonitrile]: the inhibition at 1.11 µM in experiment [1] amounted to 9.44%; in experiment [2], 32.2%; in experiment [3] it was 93.8%; in experiment [4] it was 33%; in experiment [5], 76.5%.
For `CC1(C)NC(=O)c2sc(-c3ccncc3)cc2C1c1ccc(Cl)cc1` (stereo not drawn) [Compound 191, 4-(4-chlorophenyl)-5,5-dimethyl-2-(pyridin-4-yl)-5,6-dihydrothieno[2,3-c]pyridin-7(4H)-one] the same measures were 7.04%, 6.39%, 79.4%, 9.58% and 30.3%.
The compound `O=S1(=O)NCC(O)(c2ccc(Cl)cc2)c2cc(-c3ccncc3)sc21` (single isomer, unassigned) [Compound 2, 4-(4-chlorophenyl)-6-pyridin-4-yl-3,4-dihydro-2H-thieno[3,2-e][1,2]thiazin-4-ol 1,1-dioxide] returned a VPS34 % ihn in experiment [1] of 4.300%. The same compound registered a PI3Kgamma % inh in experiment [2] of 21.200%. In addition, in experiment [3], the PI3Kbeta % inh is on record as 110.400% and the IC50 is less than 100 nM. For the same compound, the PI3Kalpha % inh in experiment [4] is given as 3.200%. Moreover, in experiment [5], the PI3Kdelta % inh turned out to be 63.100%.
